Counter-ions that a name gives are not always drawn. Like-named read-outs stand apart in the source and are kept apart here.
Legend:
human NTCP [1] = target: T1, human NTCP (Homo sapiens, UniProt Q14973); assay: Screening taurocholate uptake assay (96-well, [14C]taurocholate, 10 µM drug)
T1 sequence (Q14973 1-349): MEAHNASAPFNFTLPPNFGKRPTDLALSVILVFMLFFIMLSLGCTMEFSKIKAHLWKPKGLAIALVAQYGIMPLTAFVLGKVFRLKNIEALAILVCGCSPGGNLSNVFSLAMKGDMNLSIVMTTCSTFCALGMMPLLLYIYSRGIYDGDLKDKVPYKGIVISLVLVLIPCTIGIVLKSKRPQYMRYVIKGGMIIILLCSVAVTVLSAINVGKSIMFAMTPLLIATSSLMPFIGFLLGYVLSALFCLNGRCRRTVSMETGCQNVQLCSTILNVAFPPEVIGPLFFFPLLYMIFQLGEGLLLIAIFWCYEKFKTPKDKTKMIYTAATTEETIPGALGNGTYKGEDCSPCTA

human NTCP [2] = target: T1, human NTCP; assay: Screening fluorescent competitive Myrcludex B-FITC binding assay (96-well, 10 µM drug)
[3] = Prestwick library screen, 10 µM drug, B-score of taurocholate uptake
[4] = combined ranking from functional and binding assay B-scores
[5] = Prestwick library screen, 10 µM drug, B-score of Myrcludex B-FITC binding
[6] = combined ranking from functional and binding screening assays
[7] = screen, 10 µM drug, taurocholate uptake
[8] = screen, 10 µM drug, Myrcludex B-FITC binding
[9] = Prestwick library screen, taurocholate uptake, 10 µM drug
[10] = ranking score beside the functional and binding assay B-scores of the screen
[11] = Prestwick library screen, Myrcludex B-FITC binding, 10 µM drug

Structure (SMILES): Oc1ccc2c3c1O[C@H]1[C@@H](O)CC[C@@]4(O)[C@@H](C2)N(CC2CCC2)CC[C@]314 [Nalbuphine hydrochloride]
- B-score functional assay (human NTCP [1]): -1.445
- Ranking score (human NTCP [1]): 312.49
- B-score binding assay (human NTCP [2]): -0.132

Structure (SMILES): COc1ccc(C2CNC(=O)C2)cc1OC1CCCC1 (stereo not drawn) [Rolipram]
- B-score functional assay (human NTCP [1]; [3]): 0.524
- Ranking score (human NTCP [1]; [4]): 872.569
- B-score binding assay (human NTCP [2]; [5]): 0.265

Structure (SMILES): COc1ccccc1OCCNCC(O)COc1cccc2[nH]c3ccccc3c12 (stereo not drawn) [Carvedilol]
- Ranking score (human NTCP [1]; [6]): 348.775
- B-score functional assay (human NTCP [1]; [7]): -0.341
- B-score binding assay (human NTCP [2]; [8]): -0.836

Structure (SMILES): CC(C)(C)NC[C@H](O)c1ccc(O)c(CO)c1 [Levalbuterol hydrochloride]
- B-score functional assay (human NTCP [1]; [3]): 0.334
- Ranking score (human NTCP [1]; [4]): 962.353
- B-score binding assay (human NTCP [2]; [5]): 1.242

Structure (SMILES): CC1NC(=O)NC1=O (stereo not drawn) [Methylhydantoin-5-(L)]
- B-score functional assay (human NTCP [1]; [9]): 0.737
- Ranking score (human NTCP [1]; [10]): 746.749
- B-score binding assay (human NTCP [2]; [11]): -0.07

Structure (SMILES): CCn1cc(C(=O)O)c(=O)c2cnc(N3CCNCC3)nc21 [Pipemidic acid]
- B-score functional assay (human NTCP [1]; [9]): -0.002
- Ranking score (human NTCP [1]; [10]): 736.261
- B-score binding assay (human NTCP [2]; [11]): 0.325

Structure (SMILES): C/C=C(/C(=C/C)c1ccc(O)cc1)c1ccc(O)cc1 [Dienestrol]
- Ranking score (human NTCP [1]; [6]): 419.874
- B-score functional assay (human NTCP [1]; [7]): -0.196
- B-score binding assay (human NTCP [2]; [8]): -0.567

Structure (SMILES): Cc1ccnc(NS(=O)(=O)c2ccc(N)cc2)n1 [Sulfamerazine]
- B-score functional assay (human NTCP [1]; [3]): 1.015
- Ranking score (human NTCP [1]; [4]): 923.898
- B-score binding assay (human NTCP [2]; [5]): 0.205

Structure (SMILES): CCCCN(CCCC)CCC(O)c1cc2c(Cl)cc(Cl)cc2c2cc(C(F)(F)F)ccc12 (stereo not drawn) [Halofantrine hydrochloride]
- Ranking score (human NTCP [1]; [6]): 393.07
- B-score functional assay (human NTCP [1]; [7]): 0.058
- B-score binding assay (human NTCP [2]; [8]): -1.143

Structure (SMILES): CCN1CCCC1CNC(=O)c1cc(S(N)(=O)=O)ccc1OC (stereo not drawn) [Sulpiride]
- B-score functional assay (human NTCP [1]; [9]): 0.071
- Ranking score (human NTCP [1]; [10]): 822.943
- B-score binding assay (human NTCP [2]; [11]): 0.598

Structure (SMILES): NC[C@H]1O[C@H](O[C@H]2[C@H](O)[C@@H](O[C@H]3O[C@H](CO)[C@@H](O)[C@H](N)[C@H]3O)[C@H](N)C[C@@H]2N)[C@H](O)[C@@H](O)[C@@H]1O [Kanamycin A sulfate]
- B-score functional assay (human NTCP [1]; [9]): -0.456
- Ranking score (human NTCP [1]; [10]): 673.457
- B-score binding assay (human NTCP [2]; [11]): 1.616

Structure (SMILES): CCC1(c2ccccc2)NC(=O)N(C)C1=O (stereo not drawn) [Mephenytoin]
- B-score functional assay (human NTCP [1]; [9]): 0.862
- Ranking score (human NTCP [1]; [10]): 812.389
- B-score binding assay (human NTCP [2]; [11]): 0

Structure (SMILES): Cc1nc2n(c(=O)c1CCN1CCC(c3noc4cc(F)ccc34)CC1)CCCC2 [Risperidone]
- B-score functional assay (human NTCP [1]; [3]): 0.025
- Ranking score (human NTCP [1]; [4]): 888.472
- B-score binding assay (human NTCP [2]; [5]): 1.724

Structure (SMILES): CC(=O)CC(c1ccc([N+](=O)[O-])cc1)c1c(O)c2ccccc2oc1=O (stereo not drawn) [Acenocoumarol]
- B-score functional assay (human NTCP [1]; [3]): 0.873
- Ranking score (human NTCP [1]; [4]): 950.096
- B-score binding assay (human NTCP [2]; [5]): 0.383

Structure (SMILES): CC[C@H]1OC(=O)[C@H](C)[C@@H](O[C@H]2C[C@@](C)(OC)[C@@H](O)[C@H](C)O2)[C@H](C)[C@@H](O[C@@H]2O[C@H](C)C[C@H](N(C)C)[C@H]2O)[C@](C)(OC)C[C@@H](C)C(=O)[C@H](C)[C@@H](O)[C@]1(C)O [Clarithromycin]
- Ranking score (human NTCP [1]; [6]): 370.485
- B-score functional assay (human NTCP [1]; [7]): -1.781
- B-score binding assay (human NTCP [2]; [8]): 0.501

Structure (SMILES): Cc1c(N)c(=O)n(-c2ccccc2)n1C [Ampyrone]
- B-score functional assay (human NTCP [1]): 0.135
- Ranking score (human NTCP [1]): 788.348
- B-score binding assay (human NTCP [2]): 0.217

Structure (SMILES): Cn1c(=O)c2c(ncn2CC2OCCO2)n(C)c1=O [Doxofylline]
- B-score functional assay (human NTCP [1]; [3]): 3.316
- Ranking score (human NTCP [1]; [4]): 1049.35
- B-score binding assay (human NTCP [2]; [5]): 0.388

Structure (SMILES): O=[N+]([O-])O[C@H]1CO[C@H]2[C@@H]1OC[C@H]2O[N+](=O)[O-] [Isosorbide dinitrate]
- B-score functional assay (human NTCP [1]): 2.183
- Ranking score (human NTCP [1]): 973.944
- B-score binding assay (human NTCP [2]): 0.166

Structure (SMILES): C[C@]12CCC(=O)C=C1CC[C@@H]1[C@@H]2C(=O)C[C@]2(C)C(=O)CC[C@@H]12 [Adrenosterone]
- Ranking score (human NTCP [1]; [6]): 291.781
- B-score functional assay (human NTCP [1]; [7]): -0.902
- B-score binding assay (human NTCP [2]; [8]): -0.699

Structure (SMILES): CC[N+]1(C)CCCC(OC(=O)C(O)(c2ccccc2)c2ccccc2)C1 (stereo not drawn) [Pipenzolate bromide]
- B-score functional assay (human NTCP [1]; [3]): 2.623
- Ranking score (human NTCP [1]; [4]): 1014.24
- B-score binding assay (human NTCP [2]; [5]): 0.291

Structure (SMILES): CN(Cc1cnc2nc(N)nc(N)c2n1)c1ccc(C(=O)N[C@@H](CCC(=O)O)C(=O)O)cc1 [Methotrexate]
- B-score functional assay (human NTCP [1]; [9]): 0.045
- Ranking score (human NTCP [1]; [10]): 661.494
- B-score binding assay (human NTCP [2]; [11]): -0.007

Reference: publication PMC5681660, “Reduced hepatitis B and D viral entry using clinically applied drugs as novel inhibitors of the bile acid transporter NTCP” (Scientific Reports, 2017)
